For test [1], the system named is CLOCK:BMAL1-driven transcription of Per2:luciferase. The test can be described thus: Per2:luciferase transcriptional reporter assay in HEK293 cells. It counts as cell-based. The procedure:
Luciferase Assays. HEK293 and HepG2 cells were transiently transfected with Clock (100 ng), Bmal1 (100 ng), firefly luciferase reporter (100 ng), and renilla luciferase reporter (control for transfection efficiency) (4 ng) using Lipofectamine 2000. Increasing doses of Sirt1 (200-800 ng), resveratrol (20, 50, 100 uM), nicotinamide (1, 5, 10 mM), Ex-527 (0.1 or 1.0 uM), or FK866 (10 nM) were added as indicated. 48 hrs following transfection, cells were lysed and luciferase activity monitored using the Dual-Luciferase® Reporter Assay System (Promega). Firefly luciferase values were normalized to renilla luciferase values, and a minimum of 3 independent experiments was performed in triplicate for each assay.
On the technique in general: A reporter such as luciferase makes a cellular process visible.

The next test relates to Per2 RNA oscillation. Kind of test: Per2 RNA oscillation in primary hepatocytes following serum shock. In kind it is cell-based, mice. The following applies: primary hepatocytes after serum shock, 200 nM FK866 added at t=2 (FIG. 3B); vehicle 2.2 day. The procedure: (§1) Quantitative Real-Time PCR. Total RNA was extracted from frozen tissue with Tri Reagent (Molecular Research Center, Inc.). cDNA was synthesized using the High Capacity cDNA Reverse Transcription kit (Applied Biosystems). Real-time PCR was performed and analyzed using an Applied Biosystems 7900HT Fast Real-Time PCR System (Applied Biosystems). PCR conditions were: 10 min at 95° C., then 35 cycles of 10 s at 95° C., 15 s at 60° C. Relative expression levels (normalized to Gapdh) were determined using the comparative CT method.
(§2) Primary Hepatocyte Isolation and Adenoviral Infection.
Synchronization of Primary Hepatocytes by Serum Shock. Hepatocytes were synchronized by changing to media containing 50% horse serum (t=0) for 2 hrs and then maintaining cells in media containing 0.5% FBS (A. Balsalobre, F. Damiola, U. Schibler, Cell 93, 929 (1998)). For FK866 application, 200 nM FK866 was added to the culture at t=2. RNA samples were collected at the indicated time points, and the expression of clock genes was examined by quantitative real-time PCR as described above. Damping rate was assessed as the decay rate of the oscillations of averaged Per2 RNA abundance assuming exponential decay.

For test [2], the system named is NAMPT-mediated NAD+ biosynthesis. The settings on record: primary hepatocytes, 200 nM FK866 for 24 hours (FIG. 2A).
Procedure: NAD^+Measurements. NAD^+ levels were measured using HPLC with Waters 515 pumps and a 2487 detector with a Supelco LC-18-T column (15 cm×4.6 cm). Briefly, frozen liver tissues or cultured cells were extracted in 1M perchloric acid and neutralized in 3M K2CO3 on ice. After centrifugation, the supernatant was mixed with Buffer A (50 mM K2PO4/KHPO4, pH 7.0) and loaded on to the column. The HPLC was run at a flow rate of 1 ml/min with 100% Buffer A from 0-5 min, a linear gradient to 95% Buffer N5% Buffer B (100% methanol) from 5-6 min, 95% Buffer N5% Buffer B from 6-11 min, a linear gradient to 85% Buffer N15% Buffer B from 11-13 min, 85% Buffer A/15% Buffer B from 13-23 min, and a linear gradient to 100% Buffer A from 23-24 min. NAD^+ eluted as a sharp peak at 15 min and was quantitated based on the peak area compared to a standard curve and normalized to tissue weight of frozen liver tissues or to protein content of cultured cells.
Another test concerns SIRT1 target genes. The test can be described thus: mRNA expression of SIRT1 target genes in primary hepatocytes (quantitative real-time PCR). In kind it is cell-based, mice. The following applies: 200 nM FK866 for 24 hours (FIG. 2B). The method, then:
as §1, §2
(In qPCR the cycle at which signal appears reflects the starting amount.)

The record followed here is patent publication US20110123510A1, “Methods of Affecting Biological Function Through Circadian Clock Feedback Cycle by NAMPT-Mediated NAD+ Biosynthesis” (WASHINGTON UNIVERSITY, priority 2009, published 2011).

With `NC(=O)C1CCCc2c1[nH]c1ccc(Cl)cc21` (stereo not drawn) [EX-527], the “Per2:luciferase transcription” value in test [1] (Ex-527 0.1 and 1.0 uM (FIG. 6C)) is “showed a similar trend”.

Regarding `O=C(/C=C/c1cccnc1)NCCCCC1CCN(C(=O)c2ccccc2)CC1` [FK866], the “damping rate of Per2 oscillation” value in the test with Per2 RNA oscillation stood at 5.3 days. The “NAD+ biosynthesis (NAD+ levels)” value in test [2] is listed as “significantly inhibited”. For the same compound, the “CLOCK:BMAL1-driven transcription of the Per2:luciferase reporter” value in test [1] (HEK293 cells, 10 nM FK866 for 24 or 48 hours (FIG. 2C)) is on record as “significant increase”. Also, in test [1] (Sirt1 (800 ng) and 10 nM FK866 for 48 hours (FIG. 2E)), the “SIRT1-dependent suppression of CLOCK:BMAL1-mediated transcription” value is “abrogated”. Also, in the test on SIRT1 target genes, the “reduction in mRNA expression level of G6 Pase” value is roughly 30% and the “reduction in mRNA expression level of Pepck” value was roughly 30%.

For the compound `NC(=O)c1cccnc1` [nicotinamide, 3-pyridinecarboxamide], the “Per2:luciferase transcription” value in test [1] (increasing doses of nicotinamide 1, 5 and 10 mM (FIG. 6B)) is “activated”.

With `Oc1ccc(C=Cc2cc(O)cc(O)c2)cc1` [resveratrol], the “Per2:luciferase transcription” value in test [1] (increasing doses of resveratrol 20, 50 and 100 uM (FIG. 6A)) is reported as “inhibited”.
